Reference: the kinase profiling compilation of Christmann-Franck et al. (2016)

Key:
Experiment in all cases: KINOMEscan competition binding
Settings in all cases: compound 10.0 µM
BLK (human) = BLK (human) (UniProt P51451)
DYRK1B (human) = DYRK1B (human) (UniProt Q9Y463)
NEK6 (human) = NEK6 (human) (UniProt Q9HC98)
FER (human) = FER (human) (UniProt P16591)
PAK6 (human) = PAK6 (human) (UniProt Q9NQU5)
NEK9 (human) = NEK9 (human) (UniProt Q8TD19)
TNIK (human) = TNIK (human) (UniProt Q9UKE5)
ICK (human) = ICK (human) (UniProt Q9UPZ9)
MAP2K6 (human) = MAP2K6 (human) (UniProt P52564)
MAP2K1 (human) = MAP2K1 (human) (UniProt Q02750)
MAP2K1 (human), sequence (Q02750 whole entry, looked up): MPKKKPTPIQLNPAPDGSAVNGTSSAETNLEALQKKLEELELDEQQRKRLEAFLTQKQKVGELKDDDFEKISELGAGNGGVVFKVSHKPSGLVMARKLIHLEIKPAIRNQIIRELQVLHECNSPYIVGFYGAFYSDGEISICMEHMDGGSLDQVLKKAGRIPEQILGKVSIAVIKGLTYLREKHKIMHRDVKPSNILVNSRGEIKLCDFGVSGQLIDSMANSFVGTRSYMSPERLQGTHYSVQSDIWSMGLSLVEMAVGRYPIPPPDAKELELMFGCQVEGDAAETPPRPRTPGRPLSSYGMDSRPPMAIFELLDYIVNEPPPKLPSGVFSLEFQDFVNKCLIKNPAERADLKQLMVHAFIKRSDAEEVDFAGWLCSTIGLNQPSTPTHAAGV

MAPK1 (human) = MAPK1 (human) (UniProt P28482)
AURKB (human) = AURKB (human) (UniProt Q96GD4)
AURKB (human), sequence (Q96GD4 whole entry, looked up): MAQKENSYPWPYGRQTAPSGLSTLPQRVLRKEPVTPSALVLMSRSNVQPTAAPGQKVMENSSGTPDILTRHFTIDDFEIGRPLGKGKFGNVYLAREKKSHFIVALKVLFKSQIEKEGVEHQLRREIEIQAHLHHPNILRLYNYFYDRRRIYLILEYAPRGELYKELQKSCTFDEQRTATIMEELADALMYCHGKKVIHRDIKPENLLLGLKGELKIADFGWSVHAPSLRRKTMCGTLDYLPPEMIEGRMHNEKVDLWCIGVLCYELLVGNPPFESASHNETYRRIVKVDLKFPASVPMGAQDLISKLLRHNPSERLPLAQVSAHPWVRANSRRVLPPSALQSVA

SGK3 (human) = SGK3 (human) (UniProt Q96BR1)
PRKAA1 (human) = PRKAA1 (human) (UniProt Q13131)
MARK2 (human) = MARK2 (human) (UniProt Q7KZI7)
PRKX (human) = PRKX (human) (UniProt P51817)
PRKX (human), sequence (P51817 whole entry, looked up): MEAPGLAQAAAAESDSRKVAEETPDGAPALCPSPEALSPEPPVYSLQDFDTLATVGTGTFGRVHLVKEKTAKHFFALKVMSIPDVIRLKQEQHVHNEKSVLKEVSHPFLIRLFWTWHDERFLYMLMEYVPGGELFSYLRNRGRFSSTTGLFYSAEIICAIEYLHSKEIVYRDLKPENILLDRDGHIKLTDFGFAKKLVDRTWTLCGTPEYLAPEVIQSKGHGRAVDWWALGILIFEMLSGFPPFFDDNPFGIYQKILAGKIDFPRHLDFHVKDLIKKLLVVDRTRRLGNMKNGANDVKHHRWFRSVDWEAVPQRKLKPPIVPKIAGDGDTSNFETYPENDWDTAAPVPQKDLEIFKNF

TRPM6 (human) = TRPM6 (human) (UniProt Q9BX84)
DDR2 (human) = DDR2 (human) (UniProt Q16832)
RPS6KA1 KD1 (human) = RPS6KA1 KD1 (human) (UniProt Q15418)
CDC42BPA (human) = CDC42BPA (human) (UniProt Q5VT25)
CAMK1G (human) = CAMK1G (human) (UniProt Q96NX5)
CHUK (human) = CHUK (human) (UniProt O15111)
NTRK3 (human) = NTRK3 (human) (UniProt Q16288)
MAP2K2 (human) = MAP2K2 (human) (UniProt P36507)
STK3 (human) = STK3 (human) (UniProt Q13188)
STK3 (human), sequence (Q13188 whole entry, looked up): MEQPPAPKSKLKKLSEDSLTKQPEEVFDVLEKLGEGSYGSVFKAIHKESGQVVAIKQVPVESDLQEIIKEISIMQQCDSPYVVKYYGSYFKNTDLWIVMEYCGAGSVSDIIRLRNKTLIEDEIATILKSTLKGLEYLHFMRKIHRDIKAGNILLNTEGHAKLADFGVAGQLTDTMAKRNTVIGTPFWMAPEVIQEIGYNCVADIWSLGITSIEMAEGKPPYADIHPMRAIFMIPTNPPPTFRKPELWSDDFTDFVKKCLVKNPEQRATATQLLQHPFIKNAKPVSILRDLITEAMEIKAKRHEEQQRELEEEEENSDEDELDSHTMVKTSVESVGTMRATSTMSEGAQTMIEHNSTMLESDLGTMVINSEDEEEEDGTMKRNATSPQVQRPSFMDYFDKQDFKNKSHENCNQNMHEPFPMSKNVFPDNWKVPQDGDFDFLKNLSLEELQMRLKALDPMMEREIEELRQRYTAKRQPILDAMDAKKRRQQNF

[1] = tested on: FLT3 (human), P36888 [D835Y]
TNK1 (human) = TNK1 (human) (UniProt Q13470)
AKT2 (human) = AKT2 (human) (UniProt P31751)
AKT2 (human), sequence (P31751 whole entry, looked up): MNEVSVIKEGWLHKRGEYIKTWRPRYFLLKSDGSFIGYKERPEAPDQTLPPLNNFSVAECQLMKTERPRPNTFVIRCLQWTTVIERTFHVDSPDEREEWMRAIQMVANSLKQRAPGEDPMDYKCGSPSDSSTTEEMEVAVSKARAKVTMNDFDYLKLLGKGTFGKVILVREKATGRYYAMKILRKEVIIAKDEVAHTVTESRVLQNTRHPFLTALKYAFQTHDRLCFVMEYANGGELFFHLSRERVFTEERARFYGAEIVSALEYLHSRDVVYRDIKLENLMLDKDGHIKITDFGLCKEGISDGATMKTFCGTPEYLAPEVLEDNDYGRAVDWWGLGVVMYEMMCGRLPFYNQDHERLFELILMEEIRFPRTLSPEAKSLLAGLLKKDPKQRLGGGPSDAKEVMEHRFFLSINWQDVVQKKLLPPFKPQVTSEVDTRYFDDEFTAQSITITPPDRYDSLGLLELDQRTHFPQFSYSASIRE

CPK1 (P.falciparum) = tested on: CPK1 (P.falciparum)
ERN1 (human) = ERN1 (human) (UniProt O75460)
PAK1 (human) = PAK1 (human) (UniProt Q13153)
PIK3CD (human) = PIK3CD (human) (UniProt O00329)
NUAK2 (human) = NUAK2 (human) (UniProt Q9H093)
NUAK2 (human), sequence (Q9H093 whole entry, looked up): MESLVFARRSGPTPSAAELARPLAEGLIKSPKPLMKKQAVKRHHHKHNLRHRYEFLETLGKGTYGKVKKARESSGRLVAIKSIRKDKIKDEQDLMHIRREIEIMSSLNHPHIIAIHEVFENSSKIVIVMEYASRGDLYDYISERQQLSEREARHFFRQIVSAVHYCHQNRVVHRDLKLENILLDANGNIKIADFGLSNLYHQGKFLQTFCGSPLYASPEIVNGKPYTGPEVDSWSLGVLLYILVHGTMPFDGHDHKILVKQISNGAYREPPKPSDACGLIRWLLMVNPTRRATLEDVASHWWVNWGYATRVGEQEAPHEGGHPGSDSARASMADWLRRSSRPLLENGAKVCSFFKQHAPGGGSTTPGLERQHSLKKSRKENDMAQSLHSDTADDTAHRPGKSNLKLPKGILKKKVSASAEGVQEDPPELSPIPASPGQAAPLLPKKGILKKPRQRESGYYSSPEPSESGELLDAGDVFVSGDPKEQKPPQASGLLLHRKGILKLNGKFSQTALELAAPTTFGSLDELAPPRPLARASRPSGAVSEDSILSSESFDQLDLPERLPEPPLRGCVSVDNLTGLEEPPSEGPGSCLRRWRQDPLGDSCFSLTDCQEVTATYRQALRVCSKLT

BMPR1B (human) = BMPR1B (human) (UniProt O00238)
ZAP70 (human) = ZAP70 (human) (UniProt P43403)
LATS2 (human) = LATS2 (human) (UniProt Q9NRM7)
LATS2 (human), sequence (Q9NRM7 whole entry, looked up): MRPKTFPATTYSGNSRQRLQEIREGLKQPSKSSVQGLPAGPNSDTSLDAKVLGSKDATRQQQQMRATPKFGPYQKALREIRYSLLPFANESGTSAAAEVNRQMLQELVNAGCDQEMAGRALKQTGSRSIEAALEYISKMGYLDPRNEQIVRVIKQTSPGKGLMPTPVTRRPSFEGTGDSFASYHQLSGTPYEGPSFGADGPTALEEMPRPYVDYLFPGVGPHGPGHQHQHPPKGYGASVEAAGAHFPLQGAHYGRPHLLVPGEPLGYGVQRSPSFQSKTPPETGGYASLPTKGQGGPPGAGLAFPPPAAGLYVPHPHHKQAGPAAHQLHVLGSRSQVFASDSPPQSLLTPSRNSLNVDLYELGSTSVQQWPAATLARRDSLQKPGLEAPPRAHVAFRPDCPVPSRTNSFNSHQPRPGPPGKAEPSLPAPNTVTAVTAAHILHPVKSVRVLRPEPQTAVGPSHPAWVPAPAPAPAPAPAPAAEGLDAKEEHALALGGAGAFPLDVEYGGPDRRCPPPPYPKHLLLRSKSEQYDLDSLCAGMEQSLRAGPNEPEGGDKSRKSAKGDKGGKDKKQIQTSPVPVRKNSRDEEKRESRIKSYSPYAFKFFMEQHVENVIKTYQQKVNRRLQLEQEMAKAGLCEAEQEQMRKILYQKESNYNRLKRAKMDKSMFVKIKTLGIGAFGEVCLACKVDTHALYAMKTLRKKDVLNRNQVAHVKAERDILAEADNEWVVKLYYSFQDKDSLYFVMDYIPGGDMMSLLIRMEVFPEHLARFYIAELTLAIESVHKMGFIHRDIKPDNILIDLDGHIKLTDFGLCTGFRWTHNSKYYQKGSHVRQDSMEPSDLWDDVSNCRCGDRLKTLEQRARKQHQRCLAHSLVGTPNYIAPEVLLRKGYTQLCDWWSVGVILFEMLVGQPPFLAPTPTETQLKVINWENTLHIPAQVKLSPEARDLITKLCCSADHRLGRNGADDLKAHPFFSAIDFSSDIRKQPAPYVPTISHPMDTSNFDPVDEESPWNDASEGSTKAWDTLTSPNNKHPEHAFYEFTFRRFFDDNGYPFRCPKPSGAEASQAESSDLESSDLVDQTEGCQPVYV

LIMK2 (human) = LIMK2 (human) (UniProt P53671)
EPHA4 (human) = EPHA4 (human) (UniProt P54764)
MAPK3 (human) = MAPK3 (human) (UniProt P27361)
MAPK15 (human) = MAPK15 (human) (UniProt Q8TD08)

BLK (human), sequence (P51451 whole entry, looked up): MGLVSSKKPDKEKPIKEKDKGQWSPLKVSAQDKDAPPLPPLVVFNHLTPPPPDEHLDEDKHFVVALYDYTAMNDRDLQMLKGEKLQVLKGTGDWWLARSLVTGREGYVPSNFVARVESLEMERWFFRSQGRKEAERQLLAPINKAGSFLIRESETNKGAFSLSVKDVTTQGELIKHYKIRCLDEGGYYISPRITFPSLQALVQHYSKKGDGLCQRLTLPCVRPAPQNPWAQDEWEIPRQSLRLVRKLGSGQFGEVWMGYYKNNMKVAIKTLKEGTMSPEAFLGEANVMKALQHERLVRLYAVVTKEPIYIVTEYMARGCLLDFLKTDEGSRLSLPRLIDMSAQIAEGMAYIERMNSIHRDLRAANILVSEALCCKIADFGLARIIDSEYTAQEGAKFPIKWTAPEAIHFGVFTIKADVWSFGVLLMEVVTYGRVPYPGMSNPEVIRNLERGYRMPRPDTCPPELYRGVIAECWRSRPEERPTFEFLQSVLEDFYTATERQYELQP
PAK6 (human), sequence (Q9NQU5 whole entry, looked up): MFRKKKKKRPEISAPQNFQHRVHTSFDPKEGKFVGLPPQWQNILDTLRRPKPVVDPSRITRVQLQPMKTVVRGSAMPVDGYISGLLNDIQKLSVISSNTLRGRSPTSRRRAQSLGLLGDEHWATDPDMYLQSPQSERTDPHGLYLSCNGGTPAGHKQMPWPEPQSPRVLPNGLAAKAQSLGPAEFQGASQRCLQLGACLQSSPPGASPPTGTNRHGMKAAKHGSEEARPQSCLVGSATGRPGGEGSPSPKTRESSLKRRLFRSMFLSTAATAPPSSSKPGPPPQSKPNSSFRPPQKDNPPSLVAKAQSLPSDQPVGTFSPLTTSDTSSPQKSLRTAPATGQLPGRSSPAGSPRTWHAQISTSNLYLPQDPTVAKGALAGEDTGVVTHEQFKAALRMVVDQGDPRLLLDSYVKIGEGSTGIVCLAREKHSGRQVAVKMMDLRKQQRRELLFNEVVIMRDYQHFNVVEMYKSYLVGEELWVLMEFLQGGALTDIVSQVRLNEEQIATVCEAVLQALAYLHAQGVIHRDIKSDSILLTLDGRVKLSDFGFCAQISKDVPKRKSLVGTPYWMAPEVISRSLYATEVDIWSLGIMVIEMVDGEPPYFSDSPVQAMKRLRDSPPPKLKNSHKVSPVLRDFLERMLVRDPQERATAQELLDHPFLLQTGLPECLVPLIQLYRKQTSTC

Work on CCCS(=O)(=O)Nc1ccc(F)c(C(=O)c2c[nH]c3ncc(Cl)cc23)c1F yielded a kinase still bound, per cent of control (BLK (human)) of 1.7%, a kinase still bound, per cent of control (DYRK1B (human)) of 87% and a kinase still bound, per cent of control (NEK6 (human)) of 91%. The kinase still bound, per cent of control (FER (human)) was 58%, the kinase still bound, per cent of control (PAK6 (human)) was 45% and the kinase still bound, per cent of control (NEK9 (human)) was 66%. For the same compound, the kinase still bound, per cent of control (TNIK (human)) was 24%, the kinase still bound, per cent of control (ICK (human)) was 63% and the kinase still bound, per cent of control (MAP2K6 (human)) was 47%. For the same compound, the kinase still bound, per cent of control (MAP2K1 (human)) was 0.8%, the kinase still bound, per cent of control (MAPK1 (human)) was 100% and the kinase still bound, per cent of control (AURKB (human)) was 29%. For the same compound, the kinase still bound, per cent of control (SGK3 (human)) was 49%, the kinase still bound, per cent of control (PRKAA1 (human)) was 64% and the kinase still bound, per cent of control (MARK2 (human)) was 92%. The kinase still bound, per cent of control (PRKX (human)) was 100%, the kinase still bound, per cent of control (TRPM6 (human)) was 99% and the kinase still bound, per cent of control (DDR2 (human)) was 15%. It also gave a kinase still bound, per cent of control (RPS6KA1 KD1 (human)) of 71%, a kinase still bound, per cent of control (CDC42BPA (human)) of 96% and a kinase still bound, per cent of control (CAMK1G (human)) of 76%. The kinase still bound, per cent of control (CHUK (human)) was 89%, the kinase still bound, per cent of control (NTRK3 (human)) was 77% and the kinase still bound, per cent of control (MAP2K2 (human)) was 1%. It also gave a kinase still bound, per cent of control (STK3 (human)) of 21%, a kinase still bound, per cent of control [1] of 31% and a kinase still bound, per cent of control (TNK1 (human)) of 96%. It also gave a kinase still bound, per cent of control (AKT2 (human)) of 68%, a kinase still bound, per cent of control (CPK1 (P.falciparum)) of 0% and a kinase still bound, per cent of control (ERN1 (human)) of 78%. It also gave a kinase still bound, per cent of control (PAK1 (human)) of 11%, a kinase still bound, per cent of control (PIK3CD (human)) of 84% and a kinase still bound, per cent of control (NUAK2 (human)) of 41%. The kinase still bound, per cent of control (BMPR1B (human)) was 74%, the kinase still bound, per cent of control (ZAP70 (human)) was 85% and the kinase still bound, per cent of control (LATS2 (human)) was 86%. It also gave a kinase still bound, per cent of control (LIMK2 (human)) of 24%, a kinase still bound, per cent of control (EPHA4 (human)) of 100% and a kinase still bound, per cent of control (MAPK3 (human)) of 100%. The kinase still bound, per cent of control (MAPK15 (human)) was 97%.
